Data reported in US20060019958A1, “Immunity-related protein kinase inhibitors” (priority 2002, published 2006).

Columns and labels:
[1] = tested on: IκBα phosphorylation in HepG2 cells; assay: Detection of phosphorylated IκBα by Western blot method under TNFα stimulation; assay type: cell-based; settings: 40 ng/ml human TNFα, 20 μM MG-132
Experimental: Detection of Phosphorylated IκBα by Western Blot Method
[…] After 45 minutes, 40 ng/ml of human TNFα was further added. Ten minutes after the addition of the TNFα, the cells were collected, and a cell lysate was prepared by using a tip-type ultrasonic processor (Dr.Hielsher; UP-50H). After the measurement of a protein concentration using a BCA protein assay kit by Pierce (BSA standard), 30 μg of the cell lysate was applied to each lane of 12% SDS slab gel (mini gel) and an electrophoresis was carried out. After the electrophoresis, a detection of phorphorylated IκBα by Western blot method was carried out using anti-phosphorylated IκBα (Ser32) antibody (Cell Signaling) as a primary antibody and […] as a secondary antibody.

[2] = tested on: NF-κB activation by forced expression of MEKK-1 in HeLa cells; assay: Inhibition of NF-κB activation by forced expression of MEKK-1 (luciferase reporter assay); assay type: cell-based, human; settings: MEKK-1 forced expression, 24 hours
Source text: Measurement of Inhibition of NF-κB Activation by Forced Expression of MEKK-1
Using a transfection reagent(Effectene; QIAGEN), human uterine cancer cell strain HeLa was cotransfected with a plasumid (pNF κB-Luc Reporter Plasmid: STRATAGENE) integrated with an oligonucleotide having five tandem copies of NF-κB binding sequences(TGGGGACTTTCCGC) on an upstream region of the firefly luciferase gene(Luc) and the MEKK-1 gene-contained expression vector(pFC-MEKK: STRATAGENE) according to the QIAGEN's protocol, and the cells were incubated for 24 hours. After incubation in the presence or absence of a test compound for 24 hours, intracellular luciferase activity was measured by using PicaGene LT(TOYO INK MFG Co., Ltd.) and a chemical luminescence measurement apparatus(SPECTRAFluor Plus; TECAN). The inhibitory ratio was measured as a ratio relative to the value of the luciferase activity in the absence of the test compound.

SMILES: O=C(Nc1cc(C(F)(F)F)cc(C(F)(F)F)c1)c1cc(Cl)ccc1O [Compound No. 50, N-[3,5-Bis(trifluoromethyl)phenyl]-5-chloro-2-hydroxybenzamide]
- Inhibition Ratio of I κ B phosphorylation(%) ([1]; Drug Concentration 2 μg/ml): 43.0%
- Inhibitory Ratio of NF-κB Activation(%) ([2]; Drug Concentration 1 μg/ml): 92.6%
- Inhibitory Ratio of NF-κB Activation(%) ([2]; Drug Concentration 10 μg/ml): 93.2%

SMILES: CC(C)(C)c1ccc(O)c(C(=O)Nc2cc(C(F)(F)F)cc(C(F)(F)F)c2)c1 [Compound No. 56, N-[3,5-Bis(trifluoromethyl)phenyl]-5-[(1,1-dimethyl)ethyl]-2-hydroxybenzamide]
- Inhibition Ratio of I κ B phosphorylation(%) ([1]; Drug Concentration 2 μg/ml): 31.3%

SMILES: O=C(Nc1cc(C(F)(F)F)cc(C(F)(F)F)c1)c1cc(-c2ccccc2)ccc1O [Compound No. 67]
- Inhibition Ratio of I κ B phosphorylation(%) ([1]; Drug Concentration 2 μg/ml): 43.8%

SMILES: O=C(Nc1cc(C(F)(F)F)cc(C(F)(F)F)c1)c1cc(-n2cccc2)ccc1O [Compound No. 71]
- Inhibition Ratio of I κ B phosphorylation(%) ([1]; Drug Concentration 2 μg/ml): 29.5%

SMILES: CC(=O)Oc1ccccc1C(=O)Nc1cc(Cl)cc(Cl)c1 [compound 172, 2-acetoxy-N-(3,5-dichlorophenyl)benzamide]
- melting point: 218 to 219 °C

SMILES: CC(C)(C)C(=O)c1sc(NC(=O)c2cc(Cl)ccc2O)nc1C(C)(C)C [compound 195, 5-Chloro-N-{4-[(1,1-dimethyl)ethyl]-5-[(2,2-dimethyl)propionyl]thiazol-2-yl}-2-hydroxybenzamide]
- Inhibition Ratio of I κ B phosphorylation(%) ([1]; Drug Concentration 2 μg/ml): 63.5%

SMILES: CC(C)(C)c1nc(NC(=O)c2cc(Br)ccc2O)sc1N1CCOCC1 [compound 199, 5-Bromo-N-{4-[(1,1-dimethyl)ethyl]-5-morpholinothiazol-2-yl}-2-hydroxybenzamide]
- Inhibition Ratio of I κ B phosphorylation(%) ([1]; Drug Concentration 2 μg/ml): 47.9%

SMILES: CC(C)(C)c1nc(NC(=O)c2cc(Br)ccc2O)sc1N1CCN(c2ccccc2)CC1 [compound 201, 5-Bromo-N-{4-[(1,1-dimethyl)ethyl]-5-(4-phenylpiperazin-1-yl)thiazol-2-yl}-2-hydroxybenzamide]
- Inhibition Ratio of I κ B phosphorylation(%) ([1]; Drug Concentration 2 μg/ml): 57.4%

SMILES: COc1cc(/C=C/C(=O)CC(=O)/C=C/c2ccc(O)c(OC)c2)ccc1O [curcumin]
- Inhibition Ratio of I κ B phosphorylation(%) ([1]; Drug Concentration 100 μM): 51.6%
